The values that follow come from US20230174510A1, “N-acetylserotonin Derivatives as TrkB Activators and Uses Thereof” (Emory University, priority 2020, published 2023).

In data set [1] the test system is AKT. The data set is described as follows: AKT phosphorylation, western blot, primary rat cortical neuronal culture. The arrangement: key: “+”=increased phosphorylation; “−”=decreased phosphorylation; “nc”=no change. Format: cell-based. Here is the method: (§1) Different concentrations of 2-fluoro-N-(2-(5-hydroxy-1H-indol-3-yl)ethyl)nicotinamide (analogue 147) were tested in NIH-3T3-TrkB cells. Cells at 70-80% confluency were serum deprived overnight and then stimulated with different concentrations of analogue 147 for 30 minutes. Protein extract was collected and subjected for western blot analysis. […] “+”=increased phosphorylation; “−”=decreased phosphorylation; “nc”=no change.
(§2) To screen the analogs for biological activity, the phosphorylation state of TrkB and AKT, a downstream signaling mediator of TrkB activation, was examined in cultured NIH/3T3 cells expressing human TrkB and in primary cultures of rat cortical neurons (see FIG. 5).

Data set [2] concerns the target T1, TrkB (Rattus norvegicus, UniProt Q63604).
T1 construct: in primary cultures of rat cortical neurons; endogenous in cells; host or cells: primary rat cortical neurons
Nature of the data set: TrkB phosphorylation, western blot, primary rat cortical neuronal culture. The arrangement: key: “+”=increased phosphorylation; “−”=decreased phosphorylation; “nc”=no change. Format: cell-based. Here is the method: as §1, §2
On the technique in general: A western blot detects proteins with antibodies after separation by electrophoresis.

In data set [3] the target is T2, TrkB (Homo sapiens, UniProt Q16620). The data set is described as follows: TrkB phosphorylation, western blot, NIH 3T3 cells expressing human TrkB. Conditions: for pTrkB/β-actin: NIH 3T3 - TrkB cells, western blot; for concentration of best TrkB activation / TrkB activation, concentration dependence: NIH-3T3-TrkB cells, stimulated 30 minutes; for concentration of best TrkB activation: serum deprived overnight. Format: cell-based. The arrangement: expressed in transfected cells; host or cells: NIH/3T3 (NIH-3T3-TrkB) cells; key to pTrkB/β-actin: “+”=increased phosphorylation; “−”=decreased phosphorylation; “nc”=no change. As for the experimental part:
as §1, §2
Target sequence in this assay (Q16620 32-822): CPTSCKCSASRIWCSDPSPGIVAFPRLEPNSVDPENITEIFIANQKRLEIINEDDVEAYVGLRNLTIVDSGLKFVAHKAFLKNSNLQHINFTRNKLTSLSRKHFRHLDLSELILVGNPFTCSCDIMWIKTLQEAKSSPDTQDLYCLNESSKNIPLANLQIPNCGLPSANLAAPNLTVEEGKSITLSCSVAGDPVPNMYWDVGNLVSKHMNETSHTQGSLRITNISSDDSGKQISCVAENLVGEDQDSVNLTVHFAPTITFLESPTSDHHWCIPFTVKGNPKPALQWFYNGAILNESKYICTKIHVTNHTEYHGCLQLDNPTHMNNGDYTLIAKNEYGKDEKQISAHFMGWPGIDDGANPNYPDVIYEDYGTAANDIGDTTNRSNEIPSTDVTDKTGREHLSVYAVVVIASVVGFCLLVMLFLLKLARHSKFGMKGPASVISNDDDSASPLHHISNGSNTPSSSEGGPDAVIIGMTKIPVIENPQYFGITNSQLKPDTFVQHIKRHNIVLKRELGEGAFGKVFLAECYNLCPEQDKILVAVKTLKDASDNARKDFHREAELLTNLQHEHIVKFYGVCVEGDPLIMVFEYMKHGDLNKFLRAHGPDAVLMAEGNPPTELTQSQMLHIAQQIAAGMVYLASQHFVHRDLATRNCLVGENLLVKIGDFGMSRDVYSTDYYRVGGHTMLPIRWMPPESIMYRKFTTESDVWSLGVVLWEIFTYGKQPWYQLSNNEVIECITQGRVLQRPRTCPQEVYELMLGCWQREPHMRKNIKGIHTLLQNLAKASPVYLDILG

Data set [4] concerns AKT. The data set is described as follows: AKT phosphorylation, western blot, NIH 3T3 cells expressing human TrkB. Format: cell-based. More on the design: key: “+”=increased phosphorylation; “−”=decreased phosphorylation; “nc”=no change. Conditions: NIH 3T3 - TrkB cells. As for the experimental part:
as §1, §2

Data set [5] concerns the target T2, TrkB. The settings on record: cited from earlier work.
Target sequence in this assay (Q16620 32-822, species assumed): as the sequence (Q16620 32-822) above
In data set [6] the test system is kainic acid-induced neuronal cell death. Conditions: TrkB-dependent; cited from earlier work.
The target in data set [7] is T3, TrkB (Mus musculus, UniProt P15209).
T3 construct: from tissue; host or cells: retina (ganglion cells) and brain
T3 sequence (P15209 32-821): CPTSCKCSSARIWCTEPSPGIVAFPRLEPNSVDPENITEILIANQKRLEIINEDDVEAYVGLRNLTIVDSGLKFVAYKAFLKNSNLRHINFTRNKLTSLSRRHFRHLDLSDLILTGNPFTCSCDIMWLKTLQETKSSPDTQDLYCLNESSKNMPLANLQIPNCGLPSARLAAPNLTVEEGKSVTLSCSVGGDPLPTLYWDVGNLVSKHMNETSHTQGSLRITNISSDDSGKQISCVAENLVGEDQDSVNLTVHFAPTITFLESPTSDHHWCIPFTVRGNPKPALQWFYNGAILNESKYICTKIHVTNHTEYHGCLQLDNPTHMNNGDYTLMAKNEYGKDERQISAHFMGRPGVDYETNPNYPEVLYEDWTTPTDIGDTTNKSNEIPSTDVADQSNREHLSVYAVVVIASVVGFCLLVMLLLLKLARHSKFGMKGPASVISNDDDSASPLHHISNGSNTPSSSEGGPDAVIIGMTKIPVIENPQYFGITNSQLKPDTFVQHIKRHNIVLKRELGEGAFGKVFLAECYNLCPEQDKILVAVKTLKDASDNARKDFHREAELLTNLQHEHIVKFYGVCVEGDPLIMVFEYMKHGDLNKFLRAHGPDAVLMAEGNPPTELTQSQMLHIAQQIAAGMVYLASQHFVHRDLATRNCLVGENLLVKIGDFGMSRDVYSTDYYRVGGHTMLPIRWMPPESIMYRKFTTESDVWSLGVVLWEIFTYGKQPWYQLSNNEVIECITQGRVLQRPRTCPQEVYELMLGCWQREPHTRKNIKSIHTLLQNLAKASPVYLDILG
The data set is described as follows: TrkB activation in retina and brain after systemic administration. Format: in vivo. From the text: This disclosure contemplates pharmaceutical treatments for trauma-induced vision loss that can be administered on the battlefield or in field hospitals during the critical period before irreversible neuronal degeneration and vision loss occur. A mouse blast injury model has been used to characterize the effects of blast injury to the eye and visual system. Blast injury results in (1) inflammatory responses (microglial activation and reactive gliosis) and activation of the innate and acquired immune system; (2) loss of visual function (contrast sensitivity and visual acuity); (3) thinning of the nerve fiber layer of the retina, and (4) axon loss in the optic nerve. An N-acetylserotonin derivative, N-[2-(5-hydroxy-1H-indol-3-yl)ethyl]-2-oxopiperidine-3-carboxamide (HIOC), effectively mitigates vision loss when administered within several hours after blast exposure (FIG. 1). Daily administration for one week reduces or prevents blast-induced loss of visual function for at least 4 months, mitigating the progressive vision loss that occurs over time in the absence of treatment. This therapeutic effect of HIOC is mediated by activation of TrkB, the cognate receptor for Brain-Derived Neurotrophic Factor (BDNF). Both N-acetylserotonin and HIOC activate TrkB and have neuroprotective properties. […]

The subject of data set [8] is blast-induced loss of visual function. Nature of the data set: Mouse blast injury (TBI) model, loss of visual function. Format: in vivo. As for the experimental part:
Mice were exposed to a single 70 psi blast directed at the right side of the head. HIOC or vehicle was administered 15 minutes after exposure to blast, and daily for the next six days. A sham control group was included for comparison. Visual function was tested 1 week after blast.
This disclosure contemplates pharmaceutical treatments for trauma-induced vision loss that can be administered on the battlefield or in field hospitals during the critical period before irreversible neuronal degeneration and vision loss occur. A mouse blast injury model has been used to characterize the effects of blast injury to the eye and visual system. Blast injury results in (1) inflammatory responses (microglial activation and reactive gliosis) and activation of the innate and acquired immune system; (2) loss of visual function (contrast sensitivity and visual acuity); (3) thinning of the nerve fiber layer of the retina, and (4) axon loss in the optic nerve. An N-acetylserotonin derivative, N-[2-(5-hydroxy-1H-indol-3-yl)ethyl]-2-oxopiperidine-3-carboxamide (HIOC), effectively mitigates vision loss when administered within several hours after blast exposure (FIG. 1). Daily administration for one week reduces or prevents blast-induced loss of visual function for at least 4 months, mitigating the progressive vision loss that occurs over time in the absence of treatment. This therapeutic effect of HIOC is mediated by activation of TrkB, the cognate receptor for Brain-Derived Neurotrophic Factor (BDNF). Both N-acetylserotonin and HIOC activate TrkB and have neuroprotective properties. The pharmacokinetic characteristics of HIOC are desirable for an in vivo treatment because TrkB is activated for up to 16 hours following a single injection.
The ability of HIOC to mitigate the loss of visual function resulting from blast directed at the head was examined (FIG. 1). Mice were exposed to a single blast of ˜70 psi directed on the right side of the head. Contrast sensitivity was measured 1 week after blast.

Data set [9] concerns brain damage from subarachnoid hemorrhage. Conditions: cited from earlier work.
A further data set has as its system photoreceptor damage. The settings on record: cited from earlier work.

“Also recorded” adds a separate entry of the source.

T1 sequence (Q63604 32-821): as the sequence (P15209 32-821) above, with T3M, S9T, A10T, V32I, R63K, S84G, M153T, L185I, S394T, S770N counted along it

Regarding `CN1CCCC(C(=O)NCCc2c[nH]c3ccc(O)cc23)C1=O` (stereo not shown) [Analogue 151, N-(2-(5-hydroxy-1H-indol-3-yl)ethyl)-1-methyl-2-oxopiperidine-3-carboxamide], the pAkt/β-actin entry in the data set on AKT [1] is “−”. In addition, at TrkB [2], the pTrkB/β-actin result is on record as “+”.

`O=C(NCCc1c[nH]c2ccc(O)cc12)c1ccccc1` [Analogue 83, N-(2-(5-hydroxy-1H-indol-32-yl)ethyl)benzamide]: the pAkt/β-actin result in the data set on AKT [1] and with AKT [4] was “+” throughout. The pTrkB/β-actin entry on TrkB [3] and at TrkB [2] was “+” each time.

For `O=C(NCCc1c[nH]c2ccc(O)cc12)c1cccnc1F` [Analogue 147, 2-fluoro-N-(2-(5-hydroxy-1H-indol-3yl)ethyl)nicotinamide], the pAkt/β-actin entry with AKT [1] is recorded as “+”. Further, at TrkB [3], the pTrkB/β-actin result is “+”; the “concentration of best TrkB activation” value is 10 nM; the “TrkB activation, concentration dependence” value was “higher activity at low nanomolar concentrations than at 1 μM”. Also, the pAkt/β-actin entry with AKT [4] is on record as “+”. Also, on TrkB [2], the pTrkB/β-actin entry is “+”.

As for `O=C(NCCc1c[nH]c2ccc(O)cc12)c1cncc(F)c1` [Analogue 127, 5-Fluoro-N-(2-(5-hydroxy-1H-indol-3-yl)ethyl)nicotinamide], in the data set with AKT [1], the pAkt/β-actin entry is “+”. Further, at TrkB [3], the pTrkB/β-actin entry is “+”; the “concentration of best TrkB activation” value came out at 100 nM; the “TrkB activation, concentration dependence” value is listed as “higher activity at low nanomolar concentrations than at 1 μM”. Moreover, in the data set on AKT [4], the pAkt/β-actin result was “−”. In addition, on TrkB [2], the pTrkB/β-actin entry is “+”.

Turning to `COc1ccc2[nH]cc(CCNC(=O)C3CCCNC3=O)c2c1` (stereo not shown) [Analogue 149, N-(2-(5-methoxy-1H-indol-3-yl)ethyl)-2-oxopiperidine-3-carboxamide], the pAkt/β-actin result in the data set with AKT [1] and with AKT [4] was “+” throughout. For the same molecule, the pTrkB/β-actin entry is recorded as “−” on TrkB [3] and “+” at TrkB [2].

In the case of `O=C(NCCc1c[nH]c2ccc(O)cc12)c1ccncc1` [Analogue 107, N-(2-(5-hydroxy-1H-indol-3-yl)ethyl)isonicotinamide], the pAkt/β-actin entry with AKT [1] and in the data set with AKT [4] was “+” throughout. Also, the pTrkB/β-actin result on TrkB [3] and at TrkB [2] was “+” in each case.

Take `O=C(NCCc1c[nH]c2ccc(O)cc12)c1cccnc1` [Analogue 85, N-(2-(5-hydroxy-1H-indol-3-yl)ethyl)nicotinamide]: the pAkt/β-actin result with AKT [1] was “+”; in the data set on AKT [4], “nc”. For the same molecule, the values for the pTrkB/β-actin result at TrkB [3] and on TrkB [2] were “nc” and “+”, respectively.

`O=C(NCCc1c[nH]c2ccc(O)cc12)c1ccc(F)cn1` [Analogue 112, 5-fluoro-N-(2-(5-hydroxy-1H-indol-3yl)ethyl)picolinamide]: the pAkt/β-actin entry with AKT [1] is recorded as “−”. Also, the pTrkB/β-actin entry on TrkB [2] is “+”.

For `CC1(C(=O)NCCc2c[nH]c3ccc(O)cc23)CCCNC1=O` (stereo not shown) [Analogue 170, N-(2-(5-hydroxy-1H-indol-3-yl)ethyl)-3-methyl-2-oxopiperidine-3-carboxamide], the figures for the pAkt/β-actin result in the data set on AKT [1] and in the data set on AKT [4] were “nc” and “+”, respectively. For the same molecule, the pTrkB/β-actin result at TrkB [3] and at TrkB [2] was “+” in each case.

For the molecule `CC(=O)NCCc1c[nH]c2ccc(O)cc12` [N-acetylserotonin], the TrkB activation entry at TrkB [5] was “activate TrkB”.

For `O=C(NCCc1c[nH]c2ccc(O)cc12)c1ccccn1` [Analogue 105, N-(2-(5-hydroxy-1H-indol-3yl)ethyl)picolinamide], the pAkt/β-actin result in the data set with AKT [1] and with AKT [4] was “+” throughout. Moreover, the pTrkB/β-actin result at TrkB [3] is reported as “−”; on TrkB [2] it was “+”.

As to `O=C(NCCc1c[nH]c2ccc(O)cc12)c1ccncc1F` [Analogue 114, 3-fluoro-N-(2-(5-hydroxy-1H-indol-3-yl)ethyl)isonicotinamide], the pAkt/β-actin entry in the data set on AKT [1] is “nc”. Also, the pTrkB/β-actin result at TrkB [2] was “nc”.

Regarding `O=C1NCCCC1C(=O)NCCc1c[nH]c2ccccc12` (stereo not shown) [Analogue 145, N-(2-(1H-indol-3-yl)ethyl)-2-oxopiperidine-3-carboxamide], the pAkt/β-actin entry with AKT [1] and in the data set on AKT [4] was “+” each time. The pTrkB/β-actin entry at TrkB [3] and on TrkB [2] was “+” in each case.

As to `O=C1NCCCC1C(=O)NCCc1c[nH]c2ccc(O)cc12` (stereo not shown) [HIOC, N-[2-(5-hydroxy-1H-indol-3-yl)ethyl]-2-oxopiperidine-3-carboxamide], the “kainic acid-induced neuronal cell death / apoptosis” value in data set [6] is “inhibits neuronal apoptosis; also recorded: reduces kainic acid-induced neuronal cell death”. Moreover, the pAkt/β-actin entry in the data set with AKT [1] and with AKT [4] was “+” each time. In addition, the pTrkB/β-actin entry at TrkB [3] and at TrkB [2] was “+” each time. Moreover, at TrkB [7] (following a single injection), the “duration of TrkB activation” value is listed as “up to 16 hours”. Also, the “blood-retinal and blood-brain barrier penetration” value on TrkB [7] (systemic administration) was “crosses the blood-retinal and blood-brain barriers”. Also, the TrkB activation entry at TrkB [5] is “activate TrkB; also recorded: selectively activates TrkB”. Besides, in [8] (blast exposure), the “effects on blast-induced retinal and optic nerve damage” value was “reduces vision loss, microglial activation in the retina, nerve fiber layer thinning, and the optic nerve axon loss”. Further, the “duration of protection from blast-induced loss of visual function” value in data set [8] (daily administration for one week) was “at least 4 months”. For the same molecule, in data set [8] (mice, single ~70 psi blast, 80 mg/kg, measured 1 week after blast), the “TBI induced decrease in contrast sensitivity” value is on record as “completely prevented”. The “brain damage from subarachnoid hemorrhage” value in data set [9] was “attenuates brain damage”. The “photoreceptor damage from toxic light exposure” value in the data set on photoreceptor damage is “reduces photoreceptor damage”.

B1: BDNF: Brain-Derived Neurotrophic Factor; TrkB is its cognate receptor (protein, UniProt P23560 19-247, looked up)
Neurotrophic factor BDNF …: APMKEANIRGQGGLAYPGVRTHGTLESVNGPKAGSRGLTSLADTFEHVIEELLDEDQKVRPNEENNKDADLYTSRVMLSSQVPLEPPLLFLLEEYKNYLDAANMSMRVRRHSDPARRGELSVCDSISEWVTAADKKTAVDMSGGTVTVLEKVPVSKGQLKQYFYETKCNPMGYTKEGCRGIDKRHWNSQCRTTQSYVRALTMDSKKRIGWRFIRIDTSCVCTLTIKRGR
As to B1, the pAkt/β-actin entry in the data set with AKT [1] and in the data set with AKT [4] was “+” in each case. Also, the pTrkB/β-actin entry with TrkB [3] and with TrkB [2] was “+” in each case.
